We go through 53 compounds from PubChem BioAssay (NCI).

Each structure is given as a SMILES string. Where “and” joins values, the source holds several entries; their conditions need not be identical. Identical values can stand only once.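 Values below derive from 48-hour exposures of cells grown in 96-well plates, with endpoints linearly interpolated between the two concentrations bracketing the appropriate inhibition level. GI50 marks 50% less growth. TGI: concentration producing complete growth inhibition.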

The test system of this experiment is MDA-MB-468 breast. Nature of the experiment: inhibition of tumour cell growth, NCI panel, 48 h.
Regarding `CCN(CCCNC(=O)Cc1cc(=O)oc2cc(N(C)C)ccc12)CCNc1ccnc2cc(Cl)ccc12`, the GI50 is 1.96 µM and the TGI is 6 µM.

As for `CCCCCCCCCCCCCCCCNC(=O)OC(C)C`, the GI50 is 4.01 µM and the TGI is 10.1 µM.

As to `CCNC(=O)N1CCc2cc(OC)c(OCCc3ccc(OC)nc3)cc2C1c1ccc(C)cc1C` (stereo not given), the GI50 is 1.59 µM and the TGI is 7.58 µM.

As for `O=NNc1ccc(S(=O)c2ccccc2)cn1` (stereo not given), the GI50 is 76.2 µM and the TGI was above 100 µM.

On to `COc1ccc(/C=C2\CS(=O)(=O)C/C(=C\c3ccc(OC)cc3)C2=O)cc1`, for which the GI50 is 1.59 µM and the TGI is 5.18 µM.

For the compound `COc1cccc(-n2ncc3c(N/N=C/c4ccc(F)cc4)ncnc32)c1`, the GI50 was above 25 µM and the TGI was above 25 µM.

For the compound `Nc1[nH]c(=O)nc2c1cnn2Cc1ccccc1`, the GI50 is above 100 µM and the TGI is above 100 µM.

As for `CN1CCN(Cc2ccc(NC(=O)c3cnc(F)c(C#Cc4cnc(N)c5ncccc45)c3)cc2C(F)(F)F)CC1`, the GI50 was 0.386 µM and the TGI turned out to be 7.68 µM.

Consider `Oc1ccc(/C=C/c2ccc(O)cc2)cc1`, for which the GI50 was 10.7 µM and the TGI was above 100 µM.

`Cc1nnc([S-])o1.[Au+].c1ccc([PH+](c2ccccc2)c2ccccc2)cc1`: the GI50 is 1.38 µM and the TGI was 2.8 µM.

Regarding `C=C(C)[C@@H]1CC[C@]2(COC(C)=O)CC[C@]3(C)[C@H](CC[C@@H]4[C@@]5(C)CCCN(C(C)=O)C(C)(C)[C@@H]5CC[C@]43C)[C@@H]12`, the GI50 is 1.53 µM and the TGI came to 3 µM.

In the case of `C=CCOC1=CC(=O)c2ccccc2C1=O`, the GI50 is 2.08 µM and the TGI turned out to be 5.14 µM.

`CC(C)(C)CC(C)(C)c1ccc(OCCSC(=N)N)cc1`: the GI50 is 0.358 µM and the TGI was found to be 1.9 µM.

Consider `N=C1N(c2ccccc2)C(=S)C(=Nc2ccccc2)N1c1ccccc1`, for which the GI50 is 7.14 µM and the TGI is 20.8 µM.

`CN(CCO)C1CCN(c2ccc(Nc3ncc4c5ccnc(F)c5n(C5CCCC5)c4n3)nc2)CC1`: the GI50 is 15.4 µM and the TGI came to 33.2 µM.

`O=[N+]([O-])c1cc([N+](=O)[O-])c(N2CCCC2)cc1NN=C(c1ccc(O)cc1)c1ccc(O)cc1`: the GI50 is 2.18 µM and the TGI is 10.1 µM.

Turning to `CCN(CC)CCCN1C(=O)c2c(c(C)c3c(oc4ccc(O)cc43)c2C)C1=O`, the GI50 was 1.65 µM and the TGI came out at 3.72 µM.

As for `CCCCC/C=C/C(=O)CCc1ccc(O)c(OC)c1`, the GI50 was 3.18 µM and the TGI amounted to 13 µM.

As to `O=C1c2ccc3c4c(ccc(c24)C(=O)N1CCCNCc1ccccc1F)C(=O)N(CCCNCc1ccccc1F)C3=O`, the GI50 is 0.143 µM and the TGI turned out to be 0.29 µM.

For `CN(C)c1ccc(O)c2c1CC1CC3C(N(C)C)C(=O)C(C(N)=O)=C(O)C3(O)C(=O)C1=C2O` (stereo not given), the GI50 was 11 µM and the TGI was found to be 57.7 µM.

As for `C/C=C(/C(=C/C)c1ccc(O)cc1)c1ccc(O)cc1`, the GI50 was 2 µM and the TGI was found to be 6.85 µM.

In the case of `NS(=O)(=O)c1ccc(Nc2ncc(-c3ccccc3)o2)cc1`, the GI50 was above 25 µM and the TGI is above 25 µM.

Take `CCC(CC)COC(=O)[C@H](C)N[P@](=O)(OC[C@H]1O[C@@](C#N)(c2ccc3c(N)ncnn23)[C@H](O)[C@@H]1O)Oc1ccccc1`: the GI50 was 0.491 µM and the TGI amounted to 3.83 µM.

For the compound `CCOC(=O)c1ccc(NC(=O)Nc2nccs2)cc1`, the GI50 was 0.0467 µM and the TGI is above 100 µM.

Take `CN1CCN(Cc2ccc(NC(=O)c3nc4ccc5[nH]ncc5c4c4c3CCCC4)cc2C(F)(F)F)CC1`: the GI50 was 0.797 µM and the TGI came out at 1.6 µM.

With `COc1cc(-c2cncn2-c2ccc(-c3nc4ccc(F)cc4s3)cc2)ccc1F`, the GI50 was 11.1 µM and the TGI was above 100 µM.

Turning to `CO[C@@H](C(=O)N1Cc2[nH]nc(NC(=O)c3ccc(N4CCN(C)CC4)cc3)c2C1)c1ccccc1`, the GI50 is 0.585 µM and 0.13 µM; the TGI is 5.28 µM and > 10 µM.

As to `CCSc1ccc2c(c1)N(CCCN1CCN(C)CC1)c1ccccc1S2`, the GI50 is 1.73 µM and the TGI was 3.38 µM.

For `COC(=O)[C@@H]1CCCN1C(=O)[C@@H]1CCCN1C(=O)[C@H](Cc1ccccc1)NC(=S)Nc1cc(C(F)(F)F)cc(C(F)(F)F)c1`, the GI50 was 2.48 µM and the TGI is 9.62 µM.

As for `COC(=O)c1c2c(c(C)[n+]([O-])c1C)C(=O)C(NCc1cccc(Cl)c1)=CC2=O`, the GI50 was 0.896 µM and the TGI was found to be 2.5 µM.

On to `CNC1CCc2c(sc(NC(=O)c3ccc(C(C)(C)C)cc3)c2C(N)=O)C1` (stereo not given), for which the GI50 was 1.84 µM and the TGI came out at 3.58 µM.

Take `Cc1ccc2c(NCCCN(C)C)c3c(C)nn(C)c3nc2c1`: the GI50 was 2.71 µM and the TGI is 10.2 µM.

Regarding `CN1CCN(Cc2ccc(NC(=O)c3cncc(C#Cc4cnc5ccc(OCC6(C)COC6)nn45)c3)cc2C(F)(F)F)CC1`, the GI50 is 0.12 µM and the TGI was determined as 0.36 µM.

For `Nc1nc2cc(-c3ccc4ncc(C(=O)N5CCOCC5)n4c3)ccc2o1`, the GI50 was 3.82 µM and the TGI turned out to be 45.5 µM.

On to `C=C1C(=O)O[C@H]2[C@H]1CC/C(COC(=O)NCc1[nH]nc3ccccc13)=C\CC[C@@]1(C)O[C@@H]21`, for which the GI50 is 0.736 µM and the TGI stood at 2.72 µM.

In the case of `COc1cc(-c2cc(/C=C3\C(=O)Nc4ccc(Cl)cc43)[nH]n2)cc(OC)c1OC`, the GI50 is 5.23 µM and the TGI turned out to be 88.8 µM.

With `NS(=O)(=O)N(c1cc(C(F)(F)F)cc(C(F)(F)F)c1)C1CCN(Cc2ccc(C(F)(F)F)cc2)CC1`, the GI50 is 5.65 µM and the TGI was found to be 12 µM.

Take `CSc1nn2c(-c3ccc4ccccc4c3)ccnc2c1C#N`: the GI50 is 2.87 µM and the TGI was 18.3 µM.

In the case of `COc1ccc(-c2cnoc2-c2ccc(OC)cc2O)cc1`, the GI50 is 0.844 µM and the TGI was 5.46 µM.

On to `C=C1C(=O)O[C@H]2[C@H]1CC/C(COC(=O)NCc1ccc(Cn3c(=O)sn(CCI)c3=O)cc1)=C\CC[C@@]1(C)O[C@@H]21`, for which the GI50 is 1.25 µM and the TGI is 2.81 µM.

With `CC(C)(Oc1ccc(Cl)cc1)C(=O)NC1C2CC3CC1CC(NS(C)(=O)=O)(C3)C2` (stereo not given), the GI50 was above 100 µM and the TGI is above 100 µM.

Regarding `Cc1nn(-c2ccccc2)c(-n2ccnc2)c1/C=N/Nc1nc(-c2ccc(Cl)c(Cl)c2)cs1`, the GI50 was 1.47 µM and the TGI turned out to be 7.92 µM.

Regarding `Cc1ccc(NS(=O)(=O)c2ccc(-c3cnc(C4CC4)o3)cc2)cc1C`, the GI50 is 0.231 µM and the TGI was found to be 2.33 µM.

In the case of `O=C(C(Br)C(Br)c1ccccc1)C(Br)C(Br)c1ccccc1` (stereo not given), the GI50 was 1.04 µM and the TGI is 3.09 µM.

As for `Cn1cc(C2=C(c3cn(C)c4cc(C(=O)O)ccc34)C(=O)NC2=O)c2ccccc21`, the GI50 was above 25 µM and the TGI was above 25 µM.

Take `COc1ccc(-c2cc3c(OC)c(OC)c(OC)cc3oc2=O)cc1`: the GI50 is 2.21 µM and the TGI was determined as 8.46 µM.

On to `O=c1ccc(N=Nc2ccccc2)ccc1Cl`, for which the GI50 was 2.46 µM and the TGI came to 10.8 µM.

As to `COC(=O)c1cc2cc(-c3ccc(OC)cc3)cnc2[nH]1`, the GI50 is 0.744 µM.

With `CCCCN(CCCC)CC(O)c1ccc(OCc2ccccc2)c2ccccc12` (stereo not given), the GI50 was 2.17 µM and the TGI was 6 µM.

On to `CCC(/C=C(C)/C=C/C(=O)c1c(O)c(-c2ccc(O)cc2)c[nH]c1=O)CO` (stereo not given), for which the GI50 was 5.24 µM and the TGI worked out at 24.4 µM.

Consider `CCCCSSC(=S)N(CC)CC`, for which the GI50 was 65.1 µM and the TGI was above 100 µM.

`COc1ccc(CN2CCc3c(Sc4ccccc4)nc(N)nc3C2=O)c(OC)c1`: the GI50 was 3.51 µM and the TGI worked out at 14 µM.

With `O=C(Nc1cccc(-n2cc(-c3ccncc3)c(-c3ccc(Cl)c(O)c3)n2)c1)Nc1cccc(C(F)(F)F)c1`, the GI50 was 0.98 µM and the TGI worked out at 7.83 µM.
